{"source": "patent US20210284691A1", "about": "“CBX8 CHROMDOMAIN INHIBITORS AND THE USES THEREOF” (Purdue Research Foundation, priority 2019, published 2021)", "key": {"CBX2 ChD": {"target": "T1, CBX2 ChD (Homo sapiens, UniProt Q14781)", "T1 construct": "CBX chromodomain constructs; host or cells: E. coli BL21 CodonPlus RIL", "T1 sequence (Q14781 12-70 limits assumed)": "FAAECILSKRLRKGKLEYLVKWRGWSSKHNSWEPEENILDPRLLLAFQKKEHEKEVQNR", "assay": "Direct fluorescence polarization (FP) binding assay"}, "LNCaP_NED cells": {"test_system": "LNCaP_NED cells", "assay": "LNCaP_NED cell proliferation, viability and morphology", "type": "cell-based", "description": "(§1) FIG. 12A). Neuroendocrine differentiation (NED) of prostate cancer induced by androgen deprivation. Representative pictures of LNCaP cells treated with normal media or charcoal-stripped serum (CSS) media for 6 days to induce neuroendocrine differentiation (LNCaP_NED). FIG. 12B). Transcriptional fold changes of KLK3/TMPRSS2/ENO2/CHGA were quantified normalized to control gene YWHAZ upon CSS media treatment for 6 or 9 days. FIG. 12C). Western blotting of CBX paralogs in LNCaP and LNCaP_NED cells generated from 14-day CSS treatment. FIG. 12D). Cell proliferation of LNCaP_NED following 5 days incubation with 2 or 10 μM SW2_152F. DMSO was used as negative control. FIG. 12E). LNCaP_NED cells were treated with 10 μM SW2_152F for 24 h-96 h. Cell morphology pictures were captured starting from 24 h. Average cell size were plotted at 24 h or 48 h for both DMSO group and compound treated group. FIG. 12F). LNCaP_NED cells were treated with 10 μM or 50 μM SW2_152F for 48 hours. Transcriptional fold change of genes (KLK3/TMPRSS2/AR/CBX2) were normalized to YWHAZ in LNCaP_NED cells with SW2_152F treatment or DMSO. FIG. 12G). LNCaP cells were treated with DMSO. LNCaP_NED cells were treated with DMSO, 10 μM GSK343 or 10 μM SW2_152F for 48 hours. Whole cell lysates were extracted for western blotting. FIG. 12H). LNCaP_NED cells were treated with DMSO or 10 μM SW2_152F for 4 hours before harvest. Binding of H3K27me3 and CBX2 at specific genomic sites (KLK3/TMPRSS2, e: enhancer, p: promoter) were evaluated using chromatin immunoprecipitation-qPCR. For all experiments in the figure, error bars represent SEM n=3 biological replicates, p-values were calculated using two-tailed Student's t-test, *=p<0.05, **=p<0.01, ***=p<0.001, ****=p<0.0001.\nCellular Activity of CBX2 Inhibitor in Neuroendocrine Differentiation of Prostate Cancer—Generation of a Prostate Cancer Neuroendocrine Differentiation (NED) System. To generate an in vitro model for NED, we cultured the androgen-sensitive prostate cancer cell line LNCaP in charcoal-stripped serum (CSS), which lacks androgens as well as other steroids. Upon treatment with CSS media, LNCaP cells adopted morphological characteristics of neuroendocrine-like cells (LNCaP_NED), which include dominant nucleus, limited cytoplasm, dendrites (FIG. 12A) and a decreased proliferation rate. To monitor transcriptional changes during androgen deprivation, we quantified the changes in expression of two NED markers (ENO2 and CHGA) and two AR target genes (KLK3 and TMPRSS2) by RT-qPCR during 15 days of androgen deprivation. […] To verify that LNCaP_NED cells become resistant to AR antagonists, we tested the effects of the AR antagonist enzalutamide (ENZA) on cell proliferation."}, "[1]": {"test_system": "H3K27me3, AR, ENO2, N-Myc, CBX2 protein levels", "assay": "Western blotting of protein expression in VCaP_NED cells", "type": "cell-based", "description": "as §1\nIn another androgen-sensitive prostate cancer cell line, VCaP, 6 days of androgen deprivation decreases AR protein expression and increases ENO2, N-Myc, H3K27me3 and CBX2 protein expression (FIG. 12G), similar to published findings (Y. Zhang, et al., 2018). Using this NED cell line (VCaP_NED), we tested how addition of EZH2 inhibitor GSK343 or CBX2 inhibitor SW2_152F affects protein expression changes during NED."}}, "note": "Square brackets hold non-standard residues; d marks the D form. Peptide text beside a SMILES is read from it. * marks the point of attachment. Tyr(3-Cl) = N[C@@H](Cc1ccc(O)c(Cl)c1)C(=O)O; Benzoyl(3,5-Cl2) = O=C(c1cc(Cl)cc(Cl)c1)*; Lys(Et2) = CCN(CC)CCCC[C@H](N)C(=O)O; Gly(cPent) = N[C@H](C(=O)O)C1CCCC1; NH(propargyl) = C#CCN*"}
{"smiles": "C#CCNC(=O)[C@H](CO)NC(=O)[C@H](CCCCN(CC)CC)NC(=O)[C@@H](NC(=O)[C@@H](NC(=O)[C@H](Cc1ccc(O)c(Cl)c1)NC(=O)c1cc(Cl)cc(Cl)c1)C1CCCC1)[C@@H](C)CC", "note": "[SW2_152F] ({Benzoyl(3,5-Cl2)}-[Tyr(3-Cl)][Gly(cPent)]I[Lys(Et2)]S-{NH(propargyl)})", "values": [{"measurement": "selectivity for CBX2 over the other paralogs", "setting": "CBX2 ChD; calculated from Kd values", "value": "at least 24 fold"}, {"measurement": "Kd", "setting": "CBX2 ChD; read-out: Kd to CBX2", "value": "~80", "unit": "nM"}, {"measurement": "cell size and dendrites of LNCaP_NED cells", "setting": "LNCaP_NED cells; 10 μM, 24 h or 48 h", "value": "significantly decreased average cell size and reduced dendrites"}, {"measurement": "LNCaP_NED cell proliferation", "setting": "LNCaP_NED cells; 2 or 10 μM, 5 days", "value": "significantly inhibited LNCaP_NED cell proliferation"}, {"measurement": "LNCaP_NED cell viability, combination with ENZA", "setting": "LNCaP_NED cells; both compounds, 4 days, compared to either alone", "value": "significantly decreased"}, {"measurement": "H3K27me3 levels", "setting": "[1]; 10 μM, 48 hours", "value": "does not"}, {"measurement": "AR, ENO2 and N-Myc expression", "setting": "[1]; compared to DMSO", "value": "increase AR and decrease ENO2 and N-Myc expression"}]}
